# Experimental data: patent publication US9611263B2, “Compounds that modulate intracellular calcium” (CALCIMEDICA, INC., priority 2013, dated 2017)
# Read-outs that look alike come from different tables or passages of the source.
# Experiments:
# Orai1/STIM1 = target: T1, Orai1/STIM1 (Homo sapiens, UniProt Q96D31); test: Fluorescence-based assay of store-operated calcium entry in Orai1/STIM1 stable cells; assay type: cell-based; conditions: for IC50: HEK-293 cells stably expressing human STIM1 and Orai1, 50% inhibition of Peak-Basal fluorescence signal, read-out: Orai1/STIM1 (IC50, μmol)
# T1 construct: expressed in transfected cells
# T1 sequence (Q96D31 whole entry): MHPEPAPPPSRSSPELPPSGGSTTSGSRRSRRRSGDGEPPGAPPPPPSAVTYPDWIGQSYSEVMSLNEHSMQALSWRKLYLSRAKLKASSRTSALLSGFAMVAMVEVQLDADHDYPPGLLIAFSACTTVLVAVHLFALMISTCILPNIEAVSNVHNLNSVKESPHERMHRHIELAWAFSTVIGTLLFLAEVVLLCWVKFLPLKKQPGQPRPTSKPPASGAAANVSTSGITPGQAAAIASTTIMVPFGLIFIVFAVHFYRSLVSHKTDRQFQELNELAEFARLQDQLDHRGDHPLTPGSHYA
# Method: A. Fluorescence-Based Assay of Store-Operated Calcium Entry in Orai1/STIM1 Stable Cells.
# Cells stably expressing recombinant human STIM1 and Orai1 are generated by transfecting a human Orai1 expression plasmid (pcDNA3.1-Orai1-cmyc) into HEK-293 cells stably overexpressing human STIM1 (Roos et al. 2005 JCB 169(3): 435-445). Colonies of cells stably expressing both STIM1 and Orai1 proteins are selected and then subcloned by limiting dilution. Cells were cultured at 37° C./6% CO2 in complete medium with 10% FBS and appropriate selection markers.
# The day prior to performing the assay Orai1/STIM1 stable cells are plated in 50 μL of complete medium at 90-95% confluence in a 384 well plate. Cells are grown at 37° C./6% CO2 overnight. On the day of the assay, 1.5 μM fluo-4-AM (Invitrogen) in complete medium is added to the cells, which are then incubated for 1 hour at RT. Cells are washed once in Ca^2+-free HBSS (Hank's buffered saline solution) and 35 μl of Ca^2+-free HBSS is added to each well. Test compounds are added to wells in a 10 μL Ca^2+-free HBSS solution, prepared at 4.5× the desired final concentration, and incubated for 30 minutes at RT. The initial baseline fluorescence signal is then measured with a FLIPR^384 (Molecular Devices) plate reader. Calcium entry is initiated by adding 5 μl of 10× CaCl2 (10 mM) in HBSS, and changes in cellular fluorescence are measured with the FLIPR^384 plate reader. In each well, the magnitude of the fluorescence signal as a result of calcium entry into the cell is determined by calculating the difference between the peak fluorescence signal measured after calcium addition and the initial baseline fluorescence signal (designated Peak-Basal). IC50 values are typically calculated as the concentration that inhibited 50% of the Peak-Basal signal.
# RBL-2H3 cells = test: Fluorescence-based assay of store-operated calcium entry in RBL-2H3 cells; assay type: cell-based, rat; conditions: for IC50: thapsigargin, 50% inhibition of Upslope, read-out: RBL-2H3 (IC50, μmol); for RBL-2H3 efficacy: given in place of a class
# Method: B. Fluorescence-Based Assay of Store-Operated Calcium Entry in RBL-2H3 Cells.
# RBL-2H3 cells are obtained from ATCC and maintained in complete medium with 10% FBS at 37° C./6% CO2.
# The day prior to performing the assay, RBL-2H3 cells are plated in 50 μL of complete medium in a 384 well plate. Cells are grown at 37° C./6% CO2 overnight and grow to 50-60% confluence by the next day. On the assay day, 1.5 μM Fluo-4-AM dye (Invitrogen) in complete medium is added and incubated for 1 hour at RT. Cells are washed twice in Ca^2+-free HBSS buffer and 35 μL Ca^2+-free HBSS buffer is added to each well. 10 μL of a test compound prepared in a Ca^2+-free HBSS solution at 4.5× of the desired concentration is added to a well and incubated for 5 minutes at RT. 10 μL of thapsigargin prepared in a Ca^2+-free HBSS solution at 5.5× of the desired concentration (5.5 uM) is added to each well and incubated for an additional 25 minutes. The initial baseline fluorescence signal is measured with a FLIPR^384 (Molecular Devices) plate reader. 5 μL of 12× calcium in HBSS (12 mM) is added and changes in cellular fluorescence are measured with the FLIPR^384 plate reader. In each well, the change in the fluorescent signal as a function of time due to calcium entry into the cell is determined by calculating the difference between the fluorescent signal measured 7 seconds after calcium addition and the initial baseline fluorescence signal at time zero (t=0). This parameter is designated Upslope. The IC50 value is calculated as the concentration at which 50% of the Upslope is inhibited.
compound,measurement,setting,value
"N-(5-(3-ethyl-1-(thiazol-2-yl)-1H-pyrazol-4-yl)pyrazin-2-yl)-2,3,6-trifluorobenzamide [Example 39]",IC50,Orai1/STIM1,600 to 1200 nM
same,IC50,RBL-2H3 cells,< 600 nM
"N-(4-(3-ethyl-1-(thiazol-2-yl)-1H-pyrazol-4-yl)phenyl)-2,3,6-trifluorobenzamide [Example 9]",IC50,Orai1/STIM1,600 to 1200 nM
same,IC50,RBL-2H3 cells,< 600 nM
"Cc1cccc(F)c1C(=O)Nc1ccc(-c2cn(-c3nccs3)nc2C)cc1 [Example 3, 2-fluoro-6-methyl-N-(4-(3-methyl-1-(thiazol-2-yl)-1H-pyrazol-4-yl)phenyl)benzamide]",IC50,Orai1/STIM1,< 600 nM
same,IC50,"RBL-2H3 cells; Rattus norvegicus, RBL-2H3",< 600 nM
"O=C(Nc1ccc(-c2cn(-c3nccs3)nc2C2CC2)cn1)c1c(F)cc(F)cc1F [Example 46, N-(5-(3-cyclopropyl-1-(thiazol-2-yl)-1H-pyrazol-4-yl)pyridin-2-yl)-2,4,6-trifluorobenzamide]",IC50,Orai1/STIM1,600 to 1200 nM
same,IC50,"RBL-2H3 cells; Rattus norvegicus, RBL-2H3",< 600 nM
"CCc1nn(-c2nccs2)cc1-c1ccc(NC(=O)c2c(F)cc(F)cc2F)cc1F [Example 33, N-(4-(3-ethyl-1-(thiazol-2-yl)-1H-pyrazol-4-yl)-3-fluorophenyl)-2,4,6-trifluorobenzamide]",IC50,Orai1/STIM1,> 1200 nM
same,IC50,"RBL-2H3 cells; Rattus norvegicus, RBL-2H3",< 600 nM
"Cc1nn(-c2nccs2)cc1-c1ccc(NC(=O)c2ccccc2OC(F)F)s1 [Example 72, 2-(difluoromethoxy)-N-(5-(3-methyl-1-(thiazol-2-yl)-1H-pyrazol-4-yl)thiophen-2-yl)benzamide]",IC50,Orai1/STIM1,600 to 1200 nM
same,IC50,"RBL-2H3 cells; Rattus norvegicus, RBL-2H3",> 1200 nM
"N-(5-(3-ethyl-1-(thiazol-2-yl)-1H-pyrazol-4-yl)pyrazin-2-yl)-2,4,6-trifluorobenzamide [Example 40]",IC50,Orai1/STIM1,< 600 nM
same,IC50,RBL-2H3 cells,< 600 nM
"Cc1nn(-c2nccs2)cc1-c1ccc(NC(=O)c2ccccc2F)s1 [Example 70, 2-fluoro-N-(5-(3-methyl-1-(thiazol-2-yl)-1H-pyrazol-4-yl)thiophen-2-yl)benzamide]",IC50,Orai1/STIM1,< 600 nM
same,IC50,"RBL-2H3 cells; Rattus norvegicus, RBL-2H3",< 600 nM
"Cc1nn(-c2nccs2)cc1-c1ccc(NC(=O)c2ccccc2F)cc1 [Example 2, 2-fluoro-N-(4-(3-methyl-1-(thiazol-2-yl)-1H-pyrazol-4-yl)phenyl)benzamide]",IC50,Orai1/STIM1,< 600 nM
same,IC50,"RBL-2H3 cells; Rattus norvegicus, RBL-2H3",< 600 nM
"Cc1nn(-c2nccs2)cc1-c1ccc(NC(=O)c2ccccc2F)cc1F [Example 11, 2-fluoro-N-(3-fluoro-4-(3-methyl-1-(thiazol-2-yl)-1H-pyrazol-4-yl)phenyl)benzamide]",IC50,Orai1/STIM1,< 600 nM
same,IC50,"RBL-2H3 cells; Rattus norvegicus, RBL-2H3",< 600 nM
"CCc1nn(-c2nccs2)cc1-c1ccc(NC(=O)c2c(F)cccc2F)cc1 [Example 6, N-(4-(3-ethyl-1-(thiazol-2-yl)-1H-pyrazol-4-yl)phenyl)-2,6-difluorobenzamide]",IC50,Orai1/STIM1,< 600 nM
same,IC50,"RBL-2H3 cells; Rattus norvegicus, RBL-2H3",< 600 nM
"Cc1nn(-c2nccs2)cc1-c1ccc(NC(=O)c2c(F)cc(F)cc2F)cc1F [Example 14, 2,4,6-trifluoro-N-(3-fluoro-4-(3-methyl-1-(thiazol-2-yl)-1H-pyrazol-4-yl)phenyl)benzamide]",IC50,Orai1/STIM1,< 600 nM
same,IC50,"RBL-2H3 cells; Rattus norvegicus, RBL-2H3",< 600 nM
"Cc1nn(-c2nccs2)cc1-c1ccc(NC(=O)c2cc(F)nc(F)c2)nc1 [Example 23, 2,6-difluoro-N-(5-(3-methyl-1-(thiazol-2-yl)-1H-pyrazol-4-yl)pyridin-2-yl)isonicotinamide]",IC50,Orai1/STIM1,< 600 nM
same,IC50,"RBL-2H3 cells; Rattus norvegicus, RBL-2H3",< 600 nM
"CCc1nn(-c2nccs2)cc1-c1nnc(NC(=O)c2c(F)ccc(F)c2F)s1 [Example 68, N-(5-(3-ethyl-1-(thiazol-2-yl)-1H-pyrazol-4-yl)-1,3,4-thiadiazol-2-yl)-2,3,6-trifluorobenzamide]",IC50,Orai1/STIM1,600 to 1200 nM
same,IC50,"RBL-2H3 cells; Rattus norvegicus, RBL-2H3",< 600 nM
"CCc1nn(-c2nccs2)cc1-c1ccc(NC(=O)c2c(F)ccc(F)c2F)nc1 [Example 36, N-(5-(3-ethyl-1-(thiazol-2-yl)-1H-pyrazol-4-yl)pyridin-2-yl)-2,3,6-trifluorobenzamide]",IC50,Orai1/STIM1,< 600 nM
same,IC50,"RBL-2H3 cells; Rattus norvegicus, RBL-2H3",< 600 nM
"Cc1nn(-c2nccs2)cc1-c1ccc(NC(=O)c2c(F)ccc(F)c2F)nc1 [Example 20, 2,3,6-trifluoro-N-(5-(3-methyl-1-(thiazol-2-yl)-1H-pyrazol-4-yl)pyridin-2-yl)benzamide]",IC50,Orai1/STIM1,< 600 nM
same,IC50,"RBL-2H3 cells; Rattus norvegicus, RBL-2H3",< 600 nM
"Cc1cnc(-n2cc(-c3ccc(NC(=O)c4c(F)cc(F)cc4F)nc3)c(C)n2)s1 [Example 65, 2,4,6-trifluoro-N-(5-(3-methyl-1-(5-methylthiazol-2-yl)-1H-pyrazol-4-yl)pyridin-2-yl)benzamide]",IC50,Orai1/STIM1,< 600 nM
same,RBL-2H3 efficacy,RBL-2H3 cells,<50%
"Cc1cccc(F)c1C(=O)Nc1ccc(-c2cn(-c3nccs3)nc2C)s1 [Example 71, 2-fluoro-6-methyl-N-(5-(3-methyl-1-(thiazol-2-yl)-1H-pyrazol-4-yl)thiophen-2-yl)benzamide]",IC50,Orai1/STIM1,600 to 1200 nM
same,IC50,"RBL-2H3 cells; Rattus norvegicus, RBL-2H3",< 600 nM
"CCc1nn(-c2nccs2)cc1-c1ccc(NC(=O)c2c(C)cccc2F)cc1 [Example 8, N-(4-(3-ethyl-1-(thiazol-2-yl)-1H-pyrazol-4-yl)phenyl)-2-fluoro-6-methylbenzamide]",IC50,Orai1/STIM1,600 to 1200 nM
same,IC50,"RBL-2H3 cells; Rattus norvegicus, RBL-2H3",< 600 nM
"Cc1nn(-c2nccs2)cc1-c1ccc(NC(=O)c2c(F)ccc(F)c2F)cc1 [Example 4, 2,3,6-trifluoro-N-(4-(3-methyl-1-(thiazol-2-yl)-1H-pyrazol-4-yl)phenyl)benzamide]",IC50,Orai1/STIM1,< 600 nM
same,IC50,"RBL-2H3 cells; Rattus norvegicus, RBL-2H3",< 600 nM
"Cc1nn(-c2ccccc2F)cc1-c1ccc(NC(=O)c2c(F)cccc2F)nc1 [Example 57, 2,6-difluoro-N-(5-(1-(2-fluorophenyl)-3-methyl-1H-pyrazol-4-yl)pyridin-2-yl)benzamide]",IC50,Orai1/STIM1,< 600 nM
same,IC50,"RBL-2H3 cells; Rattus norvegicus, RBL-2H3",< 600 nM
"O=C(Nc1cnc(-c2cn(-c3nccs3)nc2C2CC2)cn1)c1c(F)cccc1F [Example 47, N-(5-(3-cyclopropyl-1-(thiazol-2-yl)-1H-pyrazol-4-yl)pyrazin-2-yl)-2,6-difluorobenzamide]",IC50,Orai1/STIM1,> 1200 nM
same,IC50,"RBL-2H3 cells; Rattus norvegicus, RBL-2H3",< 600 nM
"O=C(Nc1ccc(-c2cn(-c3nccs3)nc2C(F)(F)F)cn1)c1c(F)cccc1F [Example 52, 2,6-difluoro-N-(5-(1-(thiazol-2-yl)-3-(trifluoromethyl)-1H-pyrazol-4-yl)pyridin-2-yl)benzamide]",IC50,Orai1/STIM1,< 600 nM
same,IC50,"RBL-2H3 cells; Rattus norvegicus, RBL-2H3",< 600 nM
"Cc1nn(-c2nccs2)cc1-c1ccc(NC(=O)c2c(F)cccc2F)s1 [Example 69, 2,6-difluoro-N-(5-(3-methyl-1-(thiazol-2-yl)-1H-pyrazol-4-yl)thiophen-2-yl)benzamide]",IC50,Orai1/STIM1,< 600 nM
same,IC50,"RBL-2H3 cells; Rattus norvegicus, RBL-2H3",< 600 nM
"Cc1nn(-c2nccs2)cc1-c1cnc(NC(=O)c2c(F)ccc(F)c2F)cn1 [Example 27, 2,3,6-trifluoro-N-(5-(3-methyl-1-(thiazol-2-yl)-1H-pyrazol-4-yl)pyrazin-2-yl)benzamide]",IC50,Orai1/STIM1,< 600 nM
same,IC50,"RBL-2H3 cells; Rattus norvegicus, RBL-2H3",< 600 nM
"CCc1nn(-c2nccs2)cc1-c1ccc(NC(=O)c2c(F)ccc(F)c2F)cc1F [Example 32, N-(4-(3-ethyl-1-(thiazol-2-yl)-1H-pyrazol-4-yl)-3-fluorophenyl)-2,3,6-trifluorobenzamide]",IC50,Orai1/STIM1,> 1200 nM
same,IC50,"RBL-2H3 cells; Rattus norvegicus, RBL-2H3",< 600 nM
"Cc1ccc(F)c(C(=O)Nc2ccc(-c3cn(-c4ccccc4F)nc3C)cn2)c1F [Example 60, 2,6-difluoro-N-(5-(1-(2-fluorophenyl)-3-methyl-1H-pyrazol-4-yl)pyridin-2-yl)-3-methylbenzamide]",IC50,Orai1/STIM1,< 600 nM
same,IC50,"RBL-2H3 cells; Rattus norvegicus, RBL-2H3",< 600 nM
"Cc1cnc(-n2cc(-c3ccc(NC(=O)c4c(F)cccc4F)nc3)c(C)n2)s1 [Example 63, 2,6-difluoro-N-(5-(3-methyl-1-(5-methylthiazol-2-yl)-1H-pyrazol-4-yl)pyridin-2-yl)benzamide]",Orai1/STIM1 efficacy,Orai1/STIM1; given in place of a class,<50%
same,RBL-2H3 efficacy,RBL-2H3 cells,<50%
